According to patent US20200121706A1, “METHOD FOR INHIBITING MYOPIA AND APPLICATION IN PREPARING DRUG” (WENZHOU MEDICAL UNIVERSITY, priority 2017, published 2020):

Columns and labels:
Assay type in all cases: in vivo, Cavia porcellus
[1] = system: scleral hypoxia-inducible factor-1α (HIF-1α); experiment: Western Blot of scleral HIF-1α after administration in form-deprived eyes; conditions: sclera removed after administration
Description: (§1) The experimental animals used in this experiment were 3-week-old British shorthair three-colored guinea pigs (Cavia porcellus). Mask technique was used as a model of monocular form-deprivation (FD) myopia. In the myopic sclera HIF-1α expression experiment, the animals were randomly divided into three groups: the normal control group, FD 1 week group, and FD 1 week & 2-day recovery group. […] In the administration experiment, HIF-1α inhibitors salidroside and formononetin were administered to the form-deprived eyes by periocular injection to inhibit HIF-1α activity. The animals in the salidroside injection experiment were randomly divided into three groups: form-deprivation+solvent control group (FD+0.9% normal saline (NS)), form-deprivation+low concentration drug group (FD+SDS 1 μg), and form-deprivation+high concentration drug group (FD+SDS 10 μg). […] Before the experiment and after 2 weeks and 4 weeks of administration respectively, the diopter was measured with an eccentric infrared photo-refractor (EIR), and the ocular axis parameters such as vitreous chamber depth and ocular axis length were measured with amplitude-mode ultrasound (11 MHz). After the administration, the sclera was removed and the expression of HIF-1α and collagen type I were detected by Western Blot.

collagen type I = experiment: Western Blot of scleral collagen type I after administration in form-deprived eyes; conditions: sclera removed after administration
Description: as §1

form-deprivation myopia = experiment: Monocular form-deprivation (FD) myopia model, periocular injection; diopter by eccentric infrared photo-refractor, ocular axis parameters by A-mode ultrasound; conditions: guinea pig FD eyes, daily periocular injection, after 4 weeks
Description: The experimental animals used in this experiment were 3-week-old British shorthair three-colored guinea pigs (Cavia porcellus). Mask technique was used as a model of monocular form-deprivation (FD) myopia. In the myopic sclera HIF-1α expression experiment, the animals were randomly divided into three groups: the normal control group, FD 1 week group, and FD 1 week & 2-day recovery group. […] In the administration experiment, HIF-1α inhibitors salidroside and formononetin were administered to the form-deprived eyes by periocular injection to inhibit HIF-1α activity. The animals in the salidroside injection experiment were randomly divided into three groups: form-deprivation+solvent control group (FD+0.9% normal saline (NS)), form-deprivation+low concentration drug group (FD+SDS 1 μg), and form-deprivation+high concentration drug group (FD+SDS 10 μg). The animals in the formononetin injection experiment were randomly divided into three groups: form-deprivation+solvent control group (FD+DMSO), form-deprivation+low concentration drug group (FD+FMN 0.5 μg), and form-deprivation+high concentration drug group (FD+FMN 5 μg). Periocular injection of drugs was performed daily at 9 am for 4 weeks without treatment of the contralateral eyes. Before the experiment and after 2 weeks and 4 weeks of administration respectively, the diopter was measured with an eccentric infrared photo-refractor (EIR), and the ocular axis parameters such as vitreous chamber depth and ocular axis length were measured with amplitude-mode ultrasound (11 MHz). After the administration, the sclera was removed and the expression of HIF-1α and collagen type I were detected by Western Blot.

OC[C@H]1O[C@@H](OCCc2ccc(O)cc2)[C@H](O)[C@@H](O)[C@@H]1O [salidroside]
up-regulation of HIF-1α expression in the sclera of FDM eyes [1]: inhibited | down-regulation of collagen (type I) expression in the sclera of FDM eyes (collagen type I): inhibited | extension of ocular axis (ocular axis length difference) compared with solvent-injection group (form-deprivation myopia): relatively smaller | extension of vitreous chamber (vitreous chamber depth difference) compared with solvent-injection group (form-deprivation myopia): relatively smaller | myopia formation (diopter difference between experimental eyes and contralateral eyes) compared with form-deprivation solvent-injection group (form-deprivation myopia): significantly reduced
